Source: patent US20110040086A1, “Novel Beta-Lactam Antibiotics, Methods for Their Production, and Their Use” (DRITTE PATENTPORTFOLIO BETEILIGUNGSGESELLSCHAFT MB, priority 2007, published 2011)

Key:
Assay in all cases: agar diffusion test (Test System II, multi-resistant germs)
[1] = tested on: Enterococcus faecalis 769; format: cell-based; design: key: r = resistant (no detectable zone of inhibition)
In short: (§1)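 Stepped amounts of each substance (10, 50, 100 μg) were applied to carrier discs from methanol or water according to solubility. These were laid on Müller-Hinton agar II inoculated at McFarland 0.5, and zones of inhibition were read following overnight incubation (18-20 h) at 37 °C.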

[2] = tested on: Staphylococcus aureus 315; format: cell-based; design: key: r = resistant (no detectable zone of inhibition)
In short: as §1

[3] = tested on: Staphylococcus haemolyticus 535; format: cell-based; design: key: r = resistant (no detectable zone of inhibition)
In short: as §1

S. aureus 33490 = format: cell-based, Staphylococcus aureus; design: key: r = resistant (no detectable zone of inhibition); conditions: quantity 0.09 μmol
In short: as §1

S. aureus 36881 = format: cell-based, Staphylococcus aureus; design: key: r = resistant (no detectable zone of inhibition)
In short: as §1

S. aureus 520 = format: cell-based, Staphylococcus aureus; design: key: r = resistant (no detectable zone of inhibition)
In short: as §1

S. aureus 38418 = format: cell-based, Staphylococcus aureus
In short: as §1

S. aureus ATCC 6538 = format: cell-based, Staphylococcus aureus
In short: as §1

S. epidermidis 847 = format: cell-based, Staphylococcus epidermidis; design: key: r = resistant (no detectable zone of inhibition)
In short: as §1

S. epidermidis 125 = format: cell-based, Staphylococcus epidermidis
In short: as §1

[4] = tested on: Staphylococcus aureus col.; format: cell-based; conditions: quantity 0.09 μmol
Protocol: The test substances are deposited in stepped quantities (10 μg, 50 μg, 100 μg) onto active ingredient carriers (sensi-discs). For this purpose, the test substances are dissolved in methanol or A. dest. according to their solubility. Each inoculated plate is fitted with 3 test sheets.
Test System II (Effect Against Multi-Resistant Germs)
For this purpose, bacteria is cultivated on Müller-Hinton-Agar II plates.
With 1-1.5 ml physiological saline solution, a bacteria suspension of McFarland 0.5 (corresponds to a bacteria density of 150×10^6 germs) is produced. Then, with a sterile glass rod, a small drop of bacteria suspension is placed on the Müller-Hinton-Agar plate and coated in three layers (vertical, horizontal, and transverse). Thereafter, the sensi-discs with the novel semi-synthetic test substances are placed on top. The fitted plates are incubated for 18-20 hours at 37° C. After incubation, the diameters of the zones of inhibition are read as a measure for the antimicrobial activity of the novel semi-synthetic test substances.

[5] = tested on: S. aureus North Germany strain; format: cell-based, Staphylococcus aureus; design: key: r = resistant (no detectable zone of inhibition)
In short: as §1

[6] = Quantity n 0.02 mol (first line per ingredient)
[7] = Quantity n 0.1 mol (second line per ingredient)
[8] = Quantity n 0.2 mol (third line per ingredient)

`CC1(C)SC2C(NC(=O)C(NC3=C(C(=O)NCCO)C(=O)C=CC3=O)c3ccc(O)cc3)C(=O)N2C1C(=O)O` (centres unmarked) [6-{2-[2-(2-hydroxyethylcarbamoyl)-3,6-dioxocyclohexa-1,4-dienylamino]-2-(4-hydroxyphenyl)-acetylamino-penicillanic acid] was tested, and the “Diameter of zone of inhibition” value ([1]; quantity 0.09 μmol) was 28 mm, the “Diameter of zone of inhibition” value ([2]; quantity 0.09 μmol) was “r” and the “Diameter of zone of inhibition” value ([3]; quantity 0.09 μmol) was “r”. For the same molecule, the “Diameter of zone of inhibition” value (S. aureus 33490) was 18 mm, the “Diameter of zone of inhibition” value (S. aureus 36881; quantity 0.09 μmol) was “r^2” and the “Diameter of zone of inhibition” value (S. aureus 520; quantity 0.09 μmol) was “r”. The “Diameter of zone of inhibition” value (S. aureus 38418; quantity 0.09 μmol) was 34 mm, the “Diameter of zone of inhibition” value (S. aureus ATCC 6538; quantity 0.09 μmol) was 44 mm and the “Diameter of zone of inhibition” value (S. epidermidis 847; quantity 0.09 μmol) was 24 mm. For the same molecule, the “Diameter of zone of inhibition” value (S. epidermidis 125; quantity 0.09 μmol) was 28 mm and the “Diameter of zone of inhibition” value [4] was 32 mm.

With “3-chlorine-7-[2-(5-methyl-3,4-dioxocyclohexa-1,5-dienylamino)-2-phenyl-acetylamino]-8-oxo-5-azabicyclo[4.2.0]oct-3-ene-4-carboxylic acid [1s]” the “Diameter of zone of inhibition, Enterococcus faecalis 769” value ([1]; Quantity n 0.02) was “r”, the “Diameter of zone of inhibition, Enterococcus faecalis 769” value ([1]; Quantity n 0.1) was “r” and the “Diameter of zone of inhibition, Enterococcus faecalis 769” value ([1]; Quantity n 0.2) was “r”. The “Diameter of zone of inhibition, Staphylococcus aureus 315” value ([2]; Quantity n 0.02 mol) was “r”, the “Diameter of zone of inhibition, Staphylococcus aureus 315” value ([2]; Quantity n 0.1 mol) was 8 mm and the “Diameter of zone of inhibition, Staphylococcus aureus 315” value ([2]; Quantity n 0.2 mol) was 12 mm. The “Diameter of zone of inhibition” value [3, 6] was “r”, the “Diameter of zone of inhibition” value [3, 7] was “r” and the “Diameter of zone of inhibition” value [3, 8] was 10 mm. For the same molecule, the “Diameter of zone of inhibition, S. aureas 36881” value (S. aureus 36881; Quantity n 0.02 mol) was “r”, the “Diameter of zone of inhibition, S. aureas 36881” value (S. aureus 36881; Quantity n 0.1 mol) was “r” and the “Diameter of zone of inhibition, S. aureas 36881” value (S. aureus 36881; Quantity n 0.2 mol) was 10 mm. For the same molecule, the “Diameter of zone of inhibition, S. aureus 520” value (S. aureus 520; Quantity n 0.02 mol) was “r”, the “Diameter of zone of inhibition, S. aureus 520” value (S. aureus 520; Quantity n 0.1 mol) was “r” and the “Diameter of zone of inhibition, S. aureus 520” value (S. aureus 520; Quantity n 0.2 mol) was 10 mm. For the same molecule, the “Diameter of zone of inhibition, S. aureus North German strain” value [5, 6] was “r”, the “Diameter of zone of inhibition, S. aureus North German strain” value [5, 7] was 8 mm and the “Diameter of zone of inhibition, S. aureus North German strain” value [5, 8] was 14 mm. For the same molecule, the “Diameter of zone of inhibition, S. aureas 38418” value (S. aureus 38418; Quantity n 0.02) was 14 mm, the “Diameter of zone of inhibition, S. aureas 38418” value (S. aureus 38418; Quantity n 0.1) was 24 mm and the “Diameter of zone of inhibition, S. aureas 38418” value (S. aureus 38418; Quantity n 0.2) was 28 mm. For the same molecule, the “Diameter of zone of inhibition, S. aureus ATCC 6538” value (S. aureus ATCC 6538; [6]) was 20 mm, the “Diameter of zone of inhibition, S. aureus ATCC 6538” value (S. aureus ATCC 6538; [7]) was 30 mm and the “Diameter of zone of inhibition, S. aureus ATCC 6538” value (S. aureus ATCC 6538; [8]) was >30 mm. The “Diameter of zone of inhibition, S. epidermidis 847” value (S. epidermidis 847; Quantity n 0.02 (first line per ingredient)) was “r”, the “Diameter of zone of inhibition, S. epidermidis 847” value (S. epidermidis 847; Quantity n 0.1 (second line per ingredient)) was 14 mm and the “Diameter of zone of inhibition, S. epidermidis 847” value (S. epidermidis 847; Quantity n 0.2 (third line per ingredient)) was 18 mm. The “Diameter of zone of inhibition, S. epidermidis 125” value (S. epidermidis 125; [6]) was 14 mm, the “Diameter of zone of inhibition, S. epidermidis 125” value (S. epidermidis 125; [7]) was 22 mm and the “Diameter of zone of inhibition, S. epidermidis 125” value (S. epidermidis 125; [8]) was 26 mm.
